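GI50 is the concentration that inhibits growth by half. TGI: total growth inhibition.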
Assays:
Test in all cases: NCI-60 cell line screen, 384-well format
HCT-116 colon = tested on: HCT-116 colon
MOLT-4 leukemia = tested on: MOLT-4 leukemia
COLO 205 colon = tested on: COLO 205 colon
OVCAR-5 ovarian = tested on: OVCAR-5 ovarian
NCI-H460 NSCLC = tested on: NCI-H460 NSCLC
OVCAR-8 ovarian = tested on: OVCAR-8 ovarian
HCC-2998 colon = tested on: HCC-2998 colon
A549 NSCLC = tested on: A549 NSCLC
HL-60(TB) leukemia = tested on: HL-60(TB) leukemia
HCT-15 colon = tested on: HCT-15 colon
NCI-H522 lung = tested on: NCI-H522 lung
MDA-MB-435 melanoma = tested on: MDA-MB-435 melanoma
HS 578T breast = tested on: HS 578T breast

SMILES: C[C@H](NC(=O)CCC(F)(F)F)C(=O)N[C@@H]1C(=O)N(CCO)c2ncccc2-c2ccccc21
- GI50 (HCT-116 colon): > 100 µM
- TGI (HCT-116 colon): > 100 µM
- GI50 (MOLT-4 leukemia): 29.8 µM
- TGI (MOLT-4 leukemia): > 100 µM
- GI50 (COLO 205 colon): > 100 µM
- TGI (COLO 205 colon): > 100 µM
- GI50 (OVCAR-5 ovarian): > 100 µM
- TGI (OVCAR-5 ovarian): > 100 µM
- GI50 (NCI-H460 NSCLC): > 100 µM
- TGI (NCI-H460 NSCLC): > 100 µM
- GI50 (OVCAR-8 ovarian): > 100 µM
- TGI (OVCAR-8 ovarian): > 100 µM
- GI50 (HCC-2998 colon): > 100 µM
- TGI (HCC-2998 colon): > 100 µM
- GI50 (A549 NSCLC): > 100 µM
- TGI (A549 NSCLC): > 100 µM
- GI50 (HL-60(TB) leukemia): 54.5 µM
- TGI (HL-60(TB) leukemia): > 100 µM
- GI50 (HCT-15 colon): > 100 µM
- TGI (HCT-15 colon): > 100 µM
- GI50 (NCI-H522 lung): > 100 µM
- TGI (NCI-H522 lung): > 100 µM
- GI50 (MDA-MB-435 melanoma): > 100 µM
- TGI (MDA-MB-435 melanoma): > 100 µM
- GI50 (HS 578T breast): > 100 µM
- TGI (HS 578T breast): > 100 µM
